# Data taken from patent publication US4980349A, “Sulphonamides derived from diarylmethanes, the processes for preparing them and pharmaceutical compositions containing them” (SANOFI, priority 1986, dated 1990).
# Entries after “also recorded” stand apart in the source; their conditions may differ. Where two headings read alike, the source gives them in different places.
# Key:
# [1] = tested on: biosynthesis of leukotrienes B4 (LTB4), human polymorphonuclear leukocytes; experiment: Biosynthesis of LTB4, isomers and oxidized metabolites in human polymorphonuclear leukocytes; type: cell-based; settings: Leukocyte
# Outline: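 Human polymorphonuclear leukocytes (5×10^6, used within 6 h of blood draw) preincubated 10 min at 37° C. with test product at 40 μM in DMSO, stimulated with 10 μM ionophore A 23187 in PBS pH 7.4. LTB4, its isomers and oxidized metabolites quantified by HPLC at 269 nm against PGB2 internal standard, as % inhibition or % increase.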
# prostacyclin synthetase = experiment: PGI2 production in human glomeruli (renal preparation model); type: cell-based; settings: arachidonic acid 5 ug/ml
# Experimental: (§1) Human glomeruli synthesize both thromboxanes, via thromboxane synthetase, and prostaglandins, via prostacyclin synthetase. The experiment consists in stimulating glomerular cells with arachidonic acid (5 ug/ml) and in assaying radioimmunologically the amount of thromboxane B2 (TXB2) and prostacyclin (PGI2) produced in the presence of increasing concentrations of test products (10^-6 M to 5×10^-5 M).
# (§2) As for the previous model, the results are expressed as IC50 in comparison with a control suspension.
# [2] = tested on: rat hind foot carragheenin-induced oedema; experiment: Carragheenin-induced oedema test; type: in vivo; settings: 3 h, read-out: percentage inhibition of the inflammation; for change in vivo at 25 mg/kg: 25 mg/kg oral; for change in vivo at 50 mg/kg: 50 mg/kg oral; for change in vivo at 100 mg/kg: 100 mg/kg oral
# [3] = tested on: foreign-body (sponge) granuloma in rats; experiment: Experimental granuloma induced by foreign body, histological study; type: in vivo, Wistar rats; settings: for histological study of the granuloma: 8 days, Table XI; for histological study of the granuloma (inflammatory connective / granulation tissue): second experiment, day 8, Table XIa
# thromboxane synthetase = experiment: TXB2 production in human glomeruli (renal preparation model); type: cell-based; settings: arachidonic acid 5 ug/ml
# Experimental: as §1, §2
# [4] = tested on: rat hind foot kaolin-induced arthritis; experiment: Kaolin-induced arthritis test, second experiment, acute phase (volume of the foot at the 8th hour); type: in vivo; settings: po, 8 h, Table IXa; for change in vivo at 25 mg/kg / change in vivo at 50 mg/kg / change in vivo at 100 mg/kg: 8th hour, read-out: percentage significant decrease in the volume of the treated foot; for ED50: foot volume, read-out: 50% active dose
# Experimental: (§3) The […] of 0.05 ml of a sterile 10% strength suspension of kaolin into the metatarsal flexor sheath of the hind foot of a rat initially induces an oedematous reaction. An inflammatory arthritis then forms.
# The early oedematous reaction appears from the first hour, and reaches its maximum between the fourth hour and the sixth hour. This is the manifestation of interest. The assessment of the volume of the foot enables the action of substances on the oedematous reaction to be studied. The measurements are carried out using a Giono and Chevilard plethysmometer.
# (§4) The test products are administered orally (stomach tube) one hour before the injection of the kaolin.
# (§5) In a second experiment, a more elaborate study was performed in order to ascertain the effect of the products, on the one hand on the acute phase of the inflammatory reaction (measured by the volume of the foot at the 8th hour), and on the other hand on the chronic phase (activity measured by the weight of the foot at the 12th hour).
# As in the previous experiment, ketoprofen was used as the comparative product:
# The results are expressed as a percentage significant decrease in the volume of the treated foot compared with the controls.
# [5] = tested on: foreign-body (sponge) granuloma in rats; experiment: Experimental granuloma induced by foreign body, weight of the granulomas; type: in vivo, Wistar rats; settings: Rattus norvegicus, po, 240 h, 10 days after implantation, Table XIb, read-out: decrease in the weight of the granulomas
# Experimental: This test consists in studying the subacute cellular phase which is developed in the 8 days which follow the implantation of a foreign body, a sponge of non-resorbable plastic, in the dorsal subcutaneous connective tissue in rats.
# The animals used are Wistar rats weighing 120-140 g and of the same origin, maintained under the same conditions of housing throughout the treatment (8 days).
# The compounds of the invention are administered orally, in a gum suspension, in the morning in a fasted state, using an oesophageal tube.
# In this experiment, on the one hand a histological study of the granulomas is performed by sampling on day 8 (results recorded in Table XIa), and on the other hand a study of the weight of the granulomas was performed 10 days after the implantation (results recorded in Table XIb).
# [6] = tested on: rat hind foot kaolin-induced arthritis; experiment: Kaolin-induced arthritis test, second experiment, chronic phase (weight of the foot at the 12th hour); type: in vivo; settings: po, 12 h, Table IXb; for change in vivo at 25 mg/kg / change in vivo at 50 mg/kg / change in vivo at 100 mg/kg: 12th hour, read-out: percentage significant decrease in the weight of the treated foot; for ED50: foot weight, read-out: 50% active dose
# Experimental: as §3, §4, §5
# As in the previous experiment, ketoprofen was used as the comparative product: […]
# [7] = first experiment, read-out: Isomers of LTB4: percentage inhibition (+ : percentage increase in the production)
# [8] = first experiment, read-out: LTB4: percentage inhibition (+ : percentage increase in the production)
# [9] = first experiment, read-out: Oxidized metabolites of LTB4: percentage inhibition (+ : percentage increase in the production)
# [10] = second experiment, read-out: Percentage inhibition of LTB4 formation
IC50 (prostacyclin synthetase) [µM],IC50 (thromboxane synthetase) [µM],SMILES,"inhibition at 40 µM [1, 7] [%]","inhibition at 40 µM [1, 8] [%]","inhibition at 40 µM [1, 10] [%]","change in vivo at 25 mg/kg ([2]; second experiment, Table Xa) [%]","change in vivo at 50 mg/kg ([2]; second experiment, Table Xa) [%]","change in vivo at 100 mg/kg ([2]; second experiment, Table Xa) [%]",change in vivo at 25 mg/kg [4] [%],change in vivo at 50 mg/kg [4] [%],change in vivo at 100 mg/kg [4] [%],ED50 [4] [mg/kg],change in vivo at 25 mg/kg [5] [%],change in vivo at 50 mg/kg [5] [%],change in vivo at 100 mg/kg [5] [%],histological study of the granuloma (inflammatory connective / granulation tissue) [3],change in vivo at 25 mg/kg [6] [%],change in vivo at 50 mg/kg [6] [%],change in vivo at 100 mg/kg [6] [%],ED50 [6] [mg/kg],further results
> 50,2.6,"O=C(O)CCCCCCCCCCCNS(=O)(=O)c1ccc(Cl)c(C(=O)c2ccccc2)c1 [Compound 1736, 12-(3-benzoyl-4-chlorobenzenesulphonamido)dodecanoic acid]",,,100,-45,-48,-55,,-50 ± 5,-55 ± 5,50,-48,-52,-55,Very distinct slowing in the formation,-45 ± 5,-55 ± 5,-58 ± 5,50,
50,3.2,O=C(O)CCCCCCCCCCNS(=O)(=O)c1ccc(Cl)cc1C(O)c1ccccc1Cl (stereo not drawn) [Compound 1796],,,100,-45,-48,-55,-50 ± 5,-55 ± 5,-60 ± 5,25,-50,-55,-60,only slightly inflammatory,-50 ± 5,-52 ± 5,-58 ± 5,25,
> 50,4.4,O=C(O)CCCCCCCCCCNS(=O)(=O)c1ccc(Cl)cc1Cc1ccccc1Cl [Compound 1797],,,100,-45,-48,-55,-50 ± 5,-55 ± 5,-60 ± 5,25,-50,-55,-60,Granuloma poorly developed; also recorded: slightly inflammatory,-50 ± 5,-58 ± 5,-60 ± 5,25,

SMILES,IC50 (prostacyclin synthetase) [µM],IC50 (thromboxane synthetase) [µM],"inhibition at 40 µM [1, 7] [%]","inhibition at 40 µM [1, 8] [%]","inhibition at 40 µM [1, 10] [%]","change in vivo at 25 mg/kg ([2]; second experiment, Table Xa) [%]","change in vivo at 50 mg/kg ([2]; second experiment, Table Xa) [%]","change in vivo at 100 mg/kg ([2]; second experiment, Table Xa) [%]",change in vivo at 25 mg/kg [4] [%],change in vivo at 50 mg/kg [4] [%],change in vivo at 100 mg/kg [4] [%],ED50 [4] [mg/kg],change in vivo at 25 mg/kg [5] [%],change in vivo at 50 mg/kg [5] [%],change in vivo at 100 mg/kg [5] [%],histological study of the granuloma (inflammatory connective / granulation tissue) [3],change in vivo at 25 mg/kg [6] [%],change in vivo at 50 mg/kg [6] [%],change in vivo at 100 mg/kg [6] [%],ED50 [6] [mg/kg],further results
"O=C(O)CCCCCCCCCCNS(=O)(=O)c1ccc(Cl)cc1C(=O)c1ccccc1 [Compound 1572, 11-(2-benzoyl-4-chlorobenzenesulphonamido)undecanoic acid]",100,7,100,84,,,,,,,,,,,,,,,,,"inhibition at 40 µM [1, 9]: 90%; change in vivo at 25 mg/kg ([2]; first experiment, Table X): -18%; change in vivo at 50 mg/kg ([2]; first experiment, Table X): -25%; change in vivo at 100 mg/kg ([2]; first experiment, Table X): -49%; histological study of the granuloma ([3]; 50 mg/kg oral): anti-inflammatory activity is exhibited; histological study of the granuloma ([3]; 100 mg/kg oral): distinct"
"O=C(O)CCCCCCCCCCNS(=O)(=O)c1ccc(Cl)cc1C(=O)c1ccccc1Cl [Compound 1574, 11-[2-(2-chlorobenzoyl)-4-chlorobenzenesulphonamido]undecanoic acid]",100,5,100,95,95,-40,-43,-45,-60 ± 6,-65 ± 6,-68 ± 5,25,-48,-50,-55,very distinct rarefaction,-58 ± 5,-60 ± 5,-60 ± 5,25,"inhibition at 40 µM [1, 9]: 100%"
